Test results published in US12077503B2, “Substituted cyclic amides and their use as herbicides” (FMC CORPORATION, priority 2015, dated 2024).

Columns and labels:
Type in all cases: in vivo
[1] = system: sedge, umbrella (small-flower umbrella sedge, Cyperus difformis); test: Test B flooded paddy test; details: Cyperus difformis, 360 h, Flood, 250 g ai/ha; visually evaluated after 13 to 15 d; read-out: Plant response rating, Sedge, Umbrella (0 to 100 scale where 0 is no effect and 100 is complete control)
Procedure, shortened: (§1)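 Evaluation by eye, against controls, occurred 13–15 d post-treatment in a greenhouse, using a 0 (no effect) to 100 (complete control) scale. Application was into the paddy water, 3 cm deep over the soil, on 2-leaf plants.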

[2] = system: ducksalad (Heteranthera limosa); test: Test B flooded paddy test; details: Heteranthera limosa, 360 h, Flood, 250 g ai/ha; visually evaluated after 13 to 15 d; read-out: Plant response rating, Ducksalad (0 to 100 scale where 0 is no effect and 100 is complete control)
Procedure, shortened: as §1

[3] = system: barnyardgrass (Echinochloa crus-galli); test: Test B flooded paddy test; details: Echinochloa crus-galli, 360 h, Flood, 250 g ai/ha; visually evaluated after 13 to 15 d; read-out: Plant response rating, Barnyardgrass (0 to 100 scale where 0 is no effect and 100 is complete control)
Procedure, shortened: as §1

[4] = system: rice (Oryra sativa); test: Test B flooded paddy test; details: Oryza sativa, 360 h, Flood, 250 g ai/ha; visually evaluated after 13 to 15 d; read-out: Plant response rating, Rice (0 to 100 scale where 0 is no effect and 100 is complete control)
Procedure, shortened: as §1

[5] = system: corn (Zea mays); test: Test A postemergence; details: Zea mays, post-emergence, 240 h, Postemergence, read-out: Corn plant response rating (0 to 100 scale); for plant injury at 125 g/ha: 125 g ai/ha, visual rating about 10 d after treatment; for plant injury at 31 g/ha: 31 g ai/ha, 0 is no effect, 100 is complete control
Procedure, shortened: (§2)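 In a loam soil and sand blend, planted seeds got a preemergence directed soil spray, and young plants at the one- to two-leaf stage, 2–10 cm high, got a postemergence application; ~10 d greenhouse hold; injury rated visually, 0 = none, 100 = complete control.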

[6] = system: blackgrass (Alopecurus myosuroides); test: Test A postemergence; details: Alopecurus myosuroides, post-emergence, 240 h, Postemergence, read-out: Blackgrass plant response rating (0 to 100 scale); for pest or weed control at 125 g/ha: 125 g ai/ha, visual rating about 10 d after treatment; for pest or weed control at 31 g/ha: 31 g ai/ha, 0 is no effect, 100 is complete control
Procedure, shortened: as §2

[7] = system: ryegrass, Italian (Italian ryegrass, Lolium multiflorum); test: Test A postemergence; details: Lolium multiflorum, post-emergence, 240 h, Postemergence, read-out: Ryegrass, Italian plant response rating (0 to 100 scale); for pest or weed control at 125 g/ha: 125 g ai/ha, visual rating about 10 d after treatment; for pest or weed control at 31 g/ha: 31 g ai/ha, 0 is no effect, 100 is complete control
Procedure, shortened: as §2

[8] = system: ragweed (common ragweed, Ambrosia elatior); test: Test A postemergence; details: Ambrosia artemisiifolia, post-emergence, 240 h, Postemergence, read-out: Ragweed plant response rating (0 to 100 scale); for pest or weed control at 125 g/ha: 125 g ai/ha, visual rating about 10 d after treatment; for pest or weed control at 31 g/ha: 31 g ai/ha, 0 is no effect, 100 is complete control
Procedure, shortened: as §2

[9] = system: pigweed (Amaranthus retroflexus); test: Test A postemergence; details: Amaranthus retroflexus, post-emergence, 240 h, Postemergence, read-out: Pigweed plant response rating (0 to 100 scale); for pest or weed control at 125 g/ha: 125 g ai/ha, visual rating about 10 d after treatment; for pest or weed control at 31 g/ha: 31 g ai/ha, 0 is no effect, 100 is complete control
Procedure, shortened: as §2

[10] = system: barnyardgrass (Echinochloa crus-galli); test: Test A postemergence; details: Echinochloa crus-galli, post-emergence, 240 h, Postemergence; for pest or weed control at 125 g/ha: 125 g ai/ha, visual rating about 10 d after treatment, read-out: Barnyardgrass plant response rating (0 to 100 scale, 0 no effect, 100 complete control); for pest or weed control at 31 g/ha: 31 g ai/ha, 0 is no effect, 100 is complete control, read-out: Barnyardgrass plant response rating (0 to 100 scale)
Procedure, shortened: as §2

[11] = system: giant foxtail (Setaria faberii); test: Test A postemergence; details: Setaria faberi, post-emergence, 240 h, Postemergence, read-out: Foxtail, Giant plant response rating (0 to 100 scale); for pest or weed control at 125 g/ha: 125 g ai/ha, visual rating about 10 d after treatment; for pest or weed control at 31 g/ha: 31 g ai/ha, 0 is no effect, 100 is complete control
Procedure, shortened: as §2

[12] = system: Kochia (Kochia scoparia); test: Test A postemergence; details: Bassia scoparia, post-emergence, 240 h, Postemergence, read-out: Kochia plant response rating (0 to 100 scale); for pest or weed control at 125 g/ha: 125 g ai/ha, visual rating about 10 d after treatment; for pest or weed control at 31 g/ha: 31 g ai/ha, 0 is no effect, 100 is complete control
Procedure, shortened: as §2

[13] = system: wheat (Triticum aestivum); test: Test A postemergence; details: Triticum aestivum, post-emergence, 240 h, Postemergence, read-out: Wheat plant response rating (0 to 100 scale); for plant injury at 125 g/ha: 125 g ai/ha, visual rating about 10 d after treatment; for plant injury at 31 g/ha: 31 g ai/ha, 0 is no effect, 100 is complete control
Procedure, shortened: as §2

[14] = system: ryegrass, Italian (Italian ryegrass, Lolium multiflorum); test: Test A preemergence; details: Lolium multiflorum, pre-emergence, 240 h, Preemergence; for pest or weed control at 31 g/ha: 31 g ai/ha, 0 to 100 scale where 0 is no effect and 100 is complete control, read-out: Ryegrass, Italian plant response rating; for pest or weed control at 125 g/ha: 125 g ai/ha, 0 to 100 scale (0 no effect, 100 complete control), read-out: Plant response rating, Ryegrass, Italian
Procedure, shortened: as §2

[15] = system: ragweed (common ragweed, Ambrosia elatior); test: Test A preemergence; details: Ambrosia artemisiifolia, pre-emergence, 240 h, Preemergence; for pest or weed control at 31 g/ha: 31 g ai/ha, 0 to 100 scale where 0 is no effect and 100 is complete control, read-out: Ragweed plant response rating; for pest or weed control at 125 g/ha: 125 g ai/ha, 0 to 100 scale (0 no effect, 100 complete control), read-out: Plant response rating, Ragweed
Procedure, shortened: as §2

[16] = system: pigweed (Amaranthus retroflexus); test: Test A preemergence; details: Amaranthus retroflexus, pre-emergence, 240 h, Preemergence; for pest or weed control at 31 g/ha: 31 g ai/ha, 0 to 100 scale where 0 is no effect and 100 is complete control, read-out: Pigweed plant response rating; for pest or weed control at 125 g/ha: 125 g ai/ha, 0 to 100 scale (0 no effect, 100 complete control), read-out: Plant response rating, Pigweed
[17] = system: barnyardgrass (Echinochloa crus-galli); test: Test A preemergence; details: Echinochloa crus-galli, pre-emergence, 240 h, Preemergence; for pest or weed control at 31 g/ha: 31 g ai/ha, 0 to 100 scale where 0 is no effect and 100 is complete control, read-out: Barnyardgrass plant response rating; for pest or weed control at 125 g/ha: 125 g ai/ha, 0 to 100 scale (0 no effect, 100 complete control), read-out: Plant response rating, Barnyardgrass
Procedure, shortened: as §2

[18] = system: giant foxtail (Setaria faberii); test: Test A preemergence; details: Setaria faberi, pre-emergence, 240 h, Preemergence; for pest or weed control at 31 g/ha: 31 g ai/ha, 0 to 100 scale where 0 is no effect and 100 is complete control, read-out: Foxtail, Giant plant response rating; for pest or weed control at 125 g/ha: 125 g ai/ha, 0 to 100 scale (0 no effect, 100 complete control), read-out: Plant response rating, Foxtail, Giant
Procedure, shortened: as §2

[19] = system: Kochia (Kochia scoparia); test: Test A preemergence; details: Bassia scoparia, pre-emergence, 240 h, Preemergence; for pest or weed control at 31 g/ha: 31 g ai/ha, 0 to 100 scale where 0 is no effect and 100 is complete control, read-out: Kochia plant response rating; for pest or weed control at 125 g/ha: 125 g ai/ha, 0 to 100 scale (0 no effect, 100 complete control), read-out: Plant response rating, Kochia
Procedure, shortened: as §2

COc1ccc([C@H]2CN(C)C(=O)[C@@H]2C(=O)Nc2ccccc2F)cc1 [Compound 1342]
pest or weed control at 250 g/ha [1]: 0%
pest or weed control at 250 g/ha [2]: 85%
pest or weed control at 250 g/ha [3]: 50%
pest or weed control at 250 g/ha [4]: 0%
plant injury at 125 g/ha [5]: 0%
plant injury at 31 g/ha [5]: 0%
pest or weed control at 125 g/ha [6]: 0%
pest or weed control at 31 g/ha [6]: 0%
pest or weed control at 125 g/ha [7]: 0%
pest or weed control at 31 g/ha [7]: 0%
pest or weed control at 125 g/ha [8]: 0%
pest or weed control at 31 g/ha [8]: 0%
pest or weed control at 125 g/ha [9]: 0%
pest or weed control at 31 g/ha [9]: 0%
pest or weed control at 125 g/ha [10]: 90%
pest or weed control at 31 g/ha [10]: 20%
pest or weed control at 125 g/ha [11]: 70%
pest or weed control at 31 g/ha [11]: 20%
pest or weed control at 125 g/ha [12]: 20%
pest or weed control at 31 g/ha [12]: 0%
plant injury at 125 g/ha [13]: 0%
plant injury at 31 g/ha [13]: 0%
pest or weed control at 31 g/ha [14]: 0%
pest or weed control at 125 g/ha [14]: 0%
pest or weed control at 31 g/ha [15]: 0%
pest or weed control at 125 g/ha [15]: 0%
pest or weed control at 31 g/ha [16]: 0%
pest or weed control at 125 g/ha [16]: 20%
pest or weed control at 31 g/ha [17]: 60%
pest or weed control at 125 g/ha [17]: 90%
pest or weed control at 31 g/ha [18]: 90%
pest or weed control at 125 g/ha [18]: 100%
pest or weed control at 31 g/ha [19]: 0%
pest or weed control at 125 g/ha [19]: 0%

CN1C[C@H](c2ccc3c(c2)OC(F)(F)O3)[C@@H](C(=O)Nc2cccnc2F)C1=O [Compound 1346]
pest or weed control at 250 g/ha [1]: 0%
pest or weed control at 250 g/ha [2]: 90%
pest or weed control at 250 g/ha [3]: 90%
pest or weed control at 250 g/ha [4]: 0%
plant injury at 125 g/ha [5]: 40%
plant injury at 31 g/ha [5]: 0%
pest or weed control at 125 g/ha [6]: 20%
pest or weed control at 31 g/ha [6]: 30%
pest or weed control at 125 g/ha [7]: 20%
pest or weed control at 31 g/ha [7]: 0%
pest or weed control at 125 g/ha [8]: 0%
pest or weed control at 31 g/ha [8]: 0%
pest or weed control at 125 g/ha [9]: 20%
pest or weed control at 31 g/ha [9]: 0%
pest or weed control at 125 g/ha [10]: 80%
pest or weed control at 31 g/ha [10]: 60%
pest or weed control at 125 g/ha [11]: 90%
pest or weed control at 31 g/ha [11]: 60%
pest or weed control at 125 g/ha [12]: 30%
pest or weed control at 31 g/ha [12]: 0%
plant injury at 125 g/ha [13]: 60%
plant injury at 31 g/ha [13]: 30%
pest or weed control at 31 g/ha [14]: 10%
pest or weed control at 125 g/ha [14]: 30%
pest or weed control at 31 g/ha [15]: 0%
pest or weed control at 125 g/ha [15]: 90%
pest or weed control at 31 g/ha [16]: 80%
pest or weed control at 125 g/ha [16]: 90%
pest or weed control at 31 g/ha [17]: 40%
pest or weed control at 125 g/ha [17]: 90%
pest or weed control at 31 g/ha [18]: 90%
pest or weed control at 125 g/ha [18]: 100%
pest or weed control at 31 g/ha [19]: 10%
pest or weed control at 125 g/ha [19]: 80%
